Measurements reported in PubChem BioAssay AID1963861 (Molecular Pharmacology Branch, DTP, NCI, 2024).

Test system: 885724-159-R-J1-PDC KRAS PDC multicell spheroid viability
Assay: Anticancer human tumor 885724-159-R-J1-PDC patient-derived pancreatic adenocarcinoma cell line growth inhibition [KRAS2]
Conditions: for IC50: curve of first compound; for viability, T/C: stronger effect = lower value
In short: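 Combination screen of spheroid viability in tumor-cell co-cultures with endothelial (HUVEC) and mesenchymal stem cell stroma. Each agent was tested in half-log dilutions, topping at clinical Cmax or at 10 microM without a known Cmax.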

[1] = second compound 0.1 µM, first compound 0.01 µM
[2] = second compound 0.1 µM, first compound 0.0316 µM
[3] = second compound 0.1 µM, first compound 0.1 µM
[4] = second compound 0.1 µM, first compound 0.316 µM
[5] = second compound 0.1 µM, first compound 1 µM
[6] = second compound 0.316 µM, first compound 0.01 µM
[7] = second compound 0.316 µM, first compound 0.0316 µM
[8] = second compound 0.316 µM, first compound 0.1 µM
[9] = second compound 0.316 µM, first compound 0.316 µM
[10] = second compound 0.316 µM, first compound 1 µM
[11] = second compound 1 µM, first compound 0.01 µM
[12] = second compound 1 µM, first compound 0.0316 µM
[13] = second compound 1 µM, first compound 0.1 µM
[14] = second compound 1 µM, first compound 0.316 µM
[15] = second compound 1 µM, first compound 1 µM
[16] = second compound 3.16 µM, first compound 0.01 µM
[17] = second compound 3.16 µM, first compound 0.0316 µM
[18] = second compound 3.16 µM, first compound 0.1 µM
[19] = second compound 3.16 µM, first compound 0.316 µM
[20] = second compound 3.16 µM, first compound 1 µM
[21] = second compound 0.1 µM, first compound 3.16 µM
[22] = second compound 0.1 µM, first compound 10 µM
[23] = second compound 0.316 µM, first compound 3.16 µM
[24] = second compound 0.316 µM, first compound 10 µM
[25] = second compound 1 µM, first compound 3.16 µM
[26] = second compound 1 µM, first compound 10 µM
[27] = second compound 3.16 µM, first compound 3.16 µM
[28] = second compound 3.16 µM, first compound 10 µM
[29] = second compound 10 µM, first compound 0.0316 µM
[30] = second compound 10 µM, first compound 0.1 µM
[31] = second compound 10 µM, first compound 0.316 µM
[32] = second compound 10 µM, first compound 1 µM
[33] = second compound 10 µM, first compound 3.16 µM
[34] = second compound 10 µM, first compound 10 µM
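Further: spheroids exposed to agents for 7 days before readout.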

Compound	IC50 (second compound 0.1 µM)	IC50 (second compound 0.316 µM)	IC50 (second compound 1 µM)	IC50 (second compound 3.16 µM)	viability, T/C [2]	viability, T/C [3]	viability, T/C [4]	viability, T/C [5]	viability, T/C [7]	viability, T/C [8]	viability, T/C [9]	viability, T/C [10]	viability, T/C [12]	viability, T/C [13]	viability, T/C [14]	viability, T/C [15]	viability, T/C [17]	viability, T/C [18]	viability, T/C [19]	viability, T/C [20]	also measured
CCN1CCN(Cc2ccc(Nc3ncc(F)c(-c4cc(F)c5nc(C)n(C(C)C)c5c4)n3)nc2)CC1 + C=CC(=O)N1CCN(c2nc(OCC3CCCN3C)nc3c2CCN(c2cccc4cccc(C)c24)C3)CC1CC#N	> 1000 nM	> 1000 nM	> 1000 nM	10 nM	75.9%	74.5%	77.7%	91.2%	78%	78.4%	76.6%	82.5%	78.1%	68.5%	72.4%	82.3%	46%	41.3%	49.4%	47.6%	IC50 (second compound 0.0316 µM): > 1000 nM; viability, T/C (second compound 0.0316 µM, first compound 0.00316 µM): 105%; viability, T/C (second compound 0.0316 µM, first compound 0.01 µM): 102%; viability, T/C (second compound 0.0316 µM, first compound 0.0316 µM): 91.2%; viability, T/C (second compound 0.0316 µM, first compound 0.1 µM): 89.1%; viability, T/C (second compound 0.0316 µM, first compound 0.316 µM): 89.3%; viability, T/C (second compound 0.0316 µM, first compound 1 µM): 89.6%; viability, T/C (second compound 0.1 µM, first compound 0.00316 µM): 93.1%; viability, T/C [1]: 93.6%; viability, T/C (second compound 0.316 µM, first compound 0.00316 µM): 101%; viability, T/C [6]: 88.1%; viability, T/C (second compound 1 µM, first compound 0.00316 µM): 75.7%; viability, T/C [11]: 86.1%; viability, T/C (second compound 3.16 µM, first compound 0.00316 µM): 53.1%; viability, T/C [16]: 54.1%
COc1cc2nccc(Oc3ccc(NC(=O)C4(C(=O)Nc5ccc(F)cc5)CC4)cc3)c2cc1OC + C=CC(=O)N1CCN(c2nc(=O)n(-c3c(C)ccnc3C(C)C)c3nc(-c4c(O)cccc4F)c(F)cc23)C(C)C1	> 10000 nM	> 10000 nM	> 10000 nM	> 10000 nM	123%	125%	142%	113%	124%	117%	117%	126%	118%	122%	114%	126%	117%	122%	123%	106%	IC50 (second compound 10 µM): 2400 nM; viability, T/C [21]: 81.4%; viability, T/C [22]: 75.6%; viability, T/C [23]: 90.4%; viability, T/C [24]: 77.7%; viability, T/C [25]: 86.4%; viability, T/C [26]: 77.6%; viability, T/C [27]: 78.6%; viability, T/C [28]: 77.7%; viability, T/C [29]: 75.6%; viability, T/C [30]: 72.2%; viability, T/C [31]: 62.3%; viability, T/C [32]: 86.2%; viability, T/C [33]: 35.8%; viability, T/C [34]: 48.9%
COC(=O)c1ccc2c(C(=Nc3ccc(N(C)C(=O)CN4CCN(C)CC4)cc3)c3ccccc3)c(O)[nH]c2c1 + C=CC(=O)N1CCN(c2nc(=O)n(-c3c(C)ccnc3C(C)C)c3nc(-c4c(O)cccc4F)c(F)cc23)C(C)C1	3150 nM	2270 nM	2070 nM	2110 nM	109%	111%	102%	103%	105%	109%	102%	104%	113%	111%	110%	98.6%	106%	110%	105%	95.7%	IC50 (second compound 10 µM): 1540 nM; viability, T/C [21]: 49.8%; viability, T/C [22]: 1.26%; viability, T/C [23]: 28.1%; viability, T/C [24]: 0.55%; viability, T/C [25]: 21.9%; viability, T/C [26]: 0.74%; viability, T/C [27]: 25.1%; viability, T/C [28]: 0.65%; viability, T/C [29]: 89.7%; viability, T/C [30]: 70.4%; viability, T/C [31]: 79.1%; viability, T/C [32]: 69.9%; viability, T/C [33]: 17.2%; viability, T/C [34]: 0.39%
CC(=O)OC12COC1CC(O)C1(C)C(=O)C(O)C3=C(C)C(OC(=O)C(O)C(NC(=O)OC(C)(C)C)c4ccccc4)CC(O)(C(OC(=O)c4ccccc4)C21)C3(C)C (stereo unspecified) + C=CC(=O)N1CCN(c2nc(=O)n(-c3c(C)ccnc3C(C)C)c3nc(-c4c(O)cccc4F)c(F)cc23)C(C)C1	> 3160 nM	> 3160 nM	> 3160 nM	> 3160 nM	104%	95.5%	107%	110%	102%	104%	112%	112%	119%	114%	103%	119%	114%	113%	112%	111%	IC50 (second compound 10 µM): > 3160 nM; viability, T/C [1]: 91.7%; viability, T/C [21]: 112%; viability, T/C [6]: 94.6%; viability, T/C [23]: 112%; viability, T/C [11]: 105%; viability, T/C [25]: 125%; viability, T/C [16]: 99.1%; viability, T/C [27]: 121%; viability, T/C (second compound 10 µM, first compound 0.01 µM): 80.8%; viability, T/C [29]: 84.1%; viability, T/C [30]: 87.7%; viability, T/C [31]: 86%; viability, T/C [32]: 86.6%; viability, T/C [33]: 78.3%
COc1cc(Nc2ncc3c(n2)-c2ccc(Cl)cc2C(c2c(F)cccc2OC)=NC3)ccc1C(=O)O + CC1OCC2(CCN(c3cnc(Sc4ccnc(N)c4Cl)c(N)n3)CC2)C1N	> 10000 nM	> 10000 nM	> 10000 nM	> 10000 nM	104%	91.3%	92.4%	96.7%	95.1%	90.7%	85.8%	84.1%	90%	88.8%	78%	79.6%	81.7%	82.2%	76.4%	73.8%	IC50 (second compound 10 µM): > 10000 nM; viability, T/C [21]: 99%; viability, T/C [22]: 103%; viability, T/C [23]: 91.2%; viability, T/C [24]: 93.5%; viability, T/C [25]: 79.4%; viability, T/C [26]: 87.7%; viability, T/C [27]: 75.2%; viability, T/C [28]: 80.3%; viability, T/C [29]: 76.5%; viability, T/C [30]: 69.3%; viability, T/C [31]: 70.6%; viability, T/C [32]: 67.7%; viability, T/C [33]: 70.9%; viability, T/C [34]: 70.9%
CC(C)n1nc(-c2ccc3oc(N)nc3c2)c2c(N)ncnc21																					viability, T/C (compound 0.000316 µM): 95.6% [middle of 5 runs]; viability, T/C (compound 0.001 µM): 74.4% [middle of 5 runs]; viability, T/C (compound 0.00316 µM): 65.9% [middle of 5 runs]; viability, T/C (compound 0.01 µM): 61.9% [middle of 5 runs]; viability, T/C (compound 0.0316 µM): 51% [middle of 5 runs]; viability, T/C (compound 0.1 µM): 46.5% [middle of 5 runs]
